# Values joined by “and” are separate entries in the source; they are usually repeats but may differ in a detail not shown here. Identical values can stand only once.
# Tests used:
# [1] = test system: Female ICR mice; assay: Loss of righting reflex (LORR) model of anesthesia; type: in vivo
# Description: Female ICR mice, weighing between 18 and 31 g were used for all experiments. The animals were housed four in a cage in a […] light/dark cycle with free access to food and water. Animal weight at the time of the experiment ranged from 22 to 33 g. On the day of the experiment, animals were brought to the lab in groups of 6-8. They were not allowed food or water for the duration of the testing period. After each experiment, animals were sacrificed.
# Diethyl lactam was synthesized as described previously (Example 1 and U.S. Pat. Nos. 6,066,666 and 5,776,959) and dissolved in 0.9% saline. All drugs were given by intraperitoneal (i.p.) injections in a volume of 0.01 ml/g body weight.
# The anesthetic effect was determined using the loss of righting reflex (LORR) model of anesthesia. […] The time to onset and duration of loss of righting reflex was recorded for each animal.
# Animals were given diethyl lactam at doses of 250, 325, 375, 500, 625, 750, 875 and 1000 mg/kg of body weight, and the time to regain the righting reflex (RR) as well as the duration of LORR were measured (Table 1). […] Other movements include a shiver (one mouse), a head twitch (one mouse), face vibrations (one mouse) and repetitive hindlimb scratching (one mouse).
# [2] = test system: mice; settings: cited from earlier work
# [3] = 500 mg/kg i.p., mice, ± one standard deviation
# [4] = 625 mg/kg i.p., mice, ± one standard deviation
# [5] = 750 mg/kg i.p., mice, ± one standard deviation
# [6] = 1000 mg/kg i.p., mice, ± one standard deviation
# [7] = 1000 mg/kg i.p., two mice excluded from the trial, listed as diethyl lactam
structure (smiles),measurement,setting,value
"CCC1(CC)CCNC1=O [DiethylABL, 3,3-diethyl-2-pyrrolidinone]",Duration of LORR,"[1]; 250 mg/kg i.p., mice",0 min
same,LORR (time to onset of loss of righting reflex),"[1]; 250 mg/kg i.p., mice",none at 30 min
same,Duration of LORR,"[1]; 325 mg/kg i.p., mice",0 min
same,LORR (time to onset of loss of righting reflex),"[1]; 325 mg/kg i.p., mice",none at 30 min
same,Duration of LORR,"[1]; 375 mg/kg i.p., mice",0 min
same,LORR (time to onset of loss of righting reflex),"[1]; 375 mg/kg i.p., mice",none at 30 min
same,Face vibrations,"[1]; 500 mg/kg i.p., five mice",one mouse
same,Head twitch,"[1]; 500 mg/kg i.p., five mice",one mouse
same,Mice seen to twitch,"[1]; 500 mg/kg i.p., five mice",Three of the five
same,Repetitive hindlimb scratching,"[1]; 500 mg/kg i.p., five mice",one mouse
same,Shiver,"[1]; 500 mg/kg i.p., five mice",one mouse
same,Physical movements observed during the experiment,"[1]; 500 mg/kg i.p., mice",various physical movements
same,Duration of LORR,[1]; [3],38.8 ± 11.6 min
same,LORR (time to onset of loss of righting reflex),[1]; [3],2.4 ± 1.8 min
same,Regain RR,[1]; [3],41 ± 12 min
same,Duration of LORR,[1]; [4],51.3 ± 16.2 min
same,LORR (time to onset of loss of righting reflex),[1]; [4],1.7 ± 0.8 min
same,Regain RR,[1]; [4],53 ± 16 min
same,Duration of LORR,[1]; [5],109.7 ± 2.0 min
same,LORR (time to onset of loss of righting reflex),[1]; [5],0.9 ± 0.3 min
same,Regain RR,[1]; [5],110 ± 2 min
same,Duration of LORR,"[1]; 875 mg/kg i.p., mice",>360 min
same,LORR (time to onset of loss of righting reflex),"[1]; 875 mg/kg i.p., mice",0.8 min
same,Regain RR,"[1]; 875 mg/kg i.p., mice",>360 min
same,Duration of LORR,[1]; [6],1470.0 ± 756 min
same,LORR (time to onset of loss of righting reflex),[1]; [6],2.0 ± 2.1 min
same,Regain RR,[1]; [6],1470 ± 85 min
same,"LORR (time to onset), individual mice excluded as outliers",[1]; [7],2.4 min and 4.2 min
same,"LORR duration, individual mice excluded as outliers",[1]; [7],156.6 min and 170.3 min
same,"Regaining RR, individual mice excluded as outliers",[1]; [7],159 min and 174.5 min
same,Time of death after injection,"[1]; 1000 mg/kg i.p., two mice included in the trial, listed as diethyl lactam",7.3 min and 4.0 min
"CCC1(CC)CCCNC1=O [3,3-diethyl-2-piperidinone]",Sedative activity,[2],only weak sedative activity

# — patent US6680331B2, “Lactam and thiolactam derivatives as anesthetic and conscious sedation agents” (priority 2001, dated 2004)
